These compounds were tested on Boophilus microplus (assay: Boophilus microplus injection test). Settings: application rate 20 μg/animal, after 7 days, laying of fertile eggs.
Assay type: in vivo
Protocol: Solvent: dimethyl sulfoxide […] The animals are transferred into dishes and kept in a climate-controlled room. Efficacy is assessed after 7 days by laying of fertile eggs. Eggs which are not visibly fertile are stored in a climate-controlled cabinet until the larvae hatch after about 42 days.

| SMILES | efficacy |
| --- | --- |
| COc1cc(C(=O)Nc2ccc(F)c(-c3cnn(-c4c(C)cc(C(F)(C(F)(F)F)C(F)(F)F)cc4C(F)(F)F)c3)c2)ccc1F [Example 2-5] | 100% |
| COc1ccc(C(=O)Nc2ccc(F)c(-c3cnn(-c4c(C)cc(C(F)(C(F)(F)F)C(F)(F)F)cc4C(F)(F)F)c3)c2)cc1F [Example 2-6] | 80% |
| COc1cc(C(=O)Nc2ccc(F)c(-c3cnn(-c4c(C)cc(C(F)(C(F)(F)F)C(F)(F)F)cc4C(F)(F)F)c3)c2)ccc1C#N [Example 2-8] | 100% |
| Cc1cc(C(F)(C(F)(F)F)C(F)(F)F)cc(C(F)(F)F)c1-n1cc(-c2cc(NC(=O)c3ccsc3)ccc2F)cn1 [Example 2-9] | 100% |
| Cc1cc(C(F)(C(F)(F)F)C(F)(F)F)cc(C(F)(F)F)c1-n1cc(-c2cc(NC(=O)c3ccccc3)ccc2F)cn1 [Example 2-10] | 100% |
| Cc1cc(C(F)(C(F)(F)F)C(F)(F)F)cc(C(F)(F)F)c1-n1cc(-c2cc(NC(=O)c3cnco3)ccc2F)cn1 [Example 2-11] | 100% |
| Cc1cc(C(F)(C(F)(F)F)C(F)(F)F)cc(C)c1-n1cc(-c2ccc(N(C)C)c(NC(=O)c3ccc(F)cc3)c2)cn1 [Example 21] | 100% |
| Cc1cc(C(F)(C(F)(F)F)C(F)(F)F)cc(C(F)(F)F)c1-n1cc(-c2ccc(F)c(NC(=O)c3cccs3)c2F)cn1 [Example 26] | 100% |
| COc1cc(C(=O)Nc2c(F)ccc(-c3cnn(-c4c(C)cc(C(F)(C(F)(F)F)C(F)(F)F)cc4C(F)(F)F)c3)c2F)ccc1F [Example 27] | 100% |
| CCOc1cc(C(=O)Nc2cc(-c3cnn(-c4c(C)cc(C(F)(C(F)(F)F)C(F)(F)F)cc4C(F)(F)F)c3)ccc2F)ccc1F [Example 29] | 100% |
| Cc1cc(C(F)(C(F)(F)F)C(F)(F)F)cc(C(F)(F)F)c1-n1cc(-c2ccc(N(C)C)c(NC(=O)C3(C)CC3)c2)cn1 [Example 36] | 100% |
| Cc1cc(C(F)(C(F)(F)F)C(F)(F)F)cc(C(F)(F)F)c1-n1cc(-c2ccc(N(C)C)c(NC(=O)c3ccsc3)c2)cn1 [Example 37] | 100% |
| Cc1cc(C(F)(C(F)(F)F)C(F)(F)F)cc(C(F)(F)F)c1-n1cc(-c2ccc(F)c(N(C)C(=O)c3ccc(F)nc3)c2F)cn1 [Example 41] | 100% |
| COc1cc(C(=O)Nc2cc(-c3cnn(-c4c(C)cc(C(F)(C(F)(F)F)C(F)(F)F)cc4C(F)(F)F)c3)ccc2F)ccc1C [Example 47] | 100% |

These compounds were tested on Musca domestica (assay: Musca domestica test). Settings: application rate 100 ppm, adult houseflies, kill after 2 days.
Assay type: in vivo
Protocol: (§1) Solvent: dimethyl sulfoxide
(§2) To produce a suitable preparation of active compound, 10 mg of active compound are mixed with 0.5 ml of dimethyl sulfoxide, and the concentrate is diluted with water to the desired concentration.
Vessels containing a sponge treated with sugar solution and the active ingredient formulation of the desired concentration are populated with 10 adult houseflies (Musca domestica)).
After 2 days, the kill in % is determined. 100% means that all of the flies have been killed; 0% means that none of the flies have been killed.

| SMILES | efficacy |
| --- | --- |
| Cc1cc(C(F)(C(F)(F)F)C(F)(F)F)cc(C(F)(F)F)c1-n1cc(-c2ccc(F)c(N(C)C(=O)c3ccc(F)nc3)c2F)cn1 [Example 41] | 100% |

Each compound was assayed on Phaedon cochleariae (assay: Phaedon cochleariae spray test). Settings: application rate 100 g/ha, larvae on Chinese cabbage leaf discs, after 7 days.
Assay type: in vivo
Protocol: (§3) Solvent: 78.0 parts by weight of acetone • • 1.5 parts by weight of dimethylformamide Emulsifier: alkylaryl polyglycol ether […] To produce further test concentrations, the formulation is diluted with emulsifier-containing water. Discs of Chinese cabbage leaves (Brassica pekinensis) are sprayed with an active ingredient formulation of the desired concentration and, after drying, populated with larvae of the mustard beetle (Phaedon cochleariae).

| SMILES | efficacy |
| --- | --- |
| COc1cc(C(=O)Nc2ccc(F)c(-c3cnn(-c4c(C)cc(C(F)(C(F)(F)F)C(F)(F)F)cc4C(F)(F)F)c3)c2)ccc1C#N [Example 2-8] | 83% |
| Cc1cc(C(F)(C(F)(F)F)C(F)(F)F)cc(C(F)(F)F)c1-n1cc(-c2cc(NC(=O)c3cnco3)ccc2F)cn1 [Example 2-11] | 100% |
| Cc1cc(C(F)(C(F)(F)F)C(F)(F)F)cc(C(F)(F)F)c1-n1cc(-c2ccc(F)c(NC(=O)c3cccs3)c2F)cn1 [Example 26] | 100% |
| Cc1cc(C(F)(C(F)(F)F)C(F)(F)F)cc(C(F)(F)F)c1-n1cc(-c2ccc(N(C)C)c(NC(=O)C3(C)CC3)c2)cn1 [Example 36] | 100% |
| Cc1cc(C(F)(C(F)(F)F)C(F)(F)F)cc(C(F)(F)F)c1-n1cc(-c2ccc(N(C)C)c(NC(=O)c3ccsc3)c2)cn1 [Example 37] | 100% |
| Cc1cc(C(F)(C(F)(F)F)C(F)(F)F)cc(C(F)(F)F)c1-n1cc(-c2ccc(F)c(N(C)C(=O)c3ccc(F)nc3)c2F)cn1 [Example 41] | 100% |

Each compound was assayed on Ctenocephalides felis (assay: Ctenocephalides felis oral test). Settings: application rate 100 ppm in citrated cattle blood, kill after 2 days.
Assay type: in vivo
Text: Solvent: dimethyl sulfoxide […] Dilution with citrated cattle blood gives the desired concentration. About 20 unfed adult cat fleas (Ctenocephalides felis) are placed into a chamber which is closed at the top and bottom with gauze. A metal cylinder whose bottom end is closed with parafilm is placed onto the chamber. The cylinder contains the blood/active ingredient formulation, which can be imbibed by the fleas through the parafilm membrane.

| SMILES | efficacy |
| --- | --- |
| Cc1cc(C(F)(C(F)(F)F)C(F)(F)F)cc(C(F)(F)F)c1-n1cc(-c2cc(NC(=O)c3ccsc3)ccc2F)cn1 [Example 2-9] | 95% |
| Cc1cc(C(F)(C(F)(F)F)C(F)(F)F)cc(C(F)(F)F)c1-n1cc(-c2cc(NC(=O)c3cnco3)ccc2F)cn1 [Example 2-11] | 100% |
| Cc1cc(C(F)(C(F)(F)F)C(F)(F)F)cc(C)c1-n1cc(-c2ccc(N(C)C)c(NC(=O)c3ccc(F)cc3)c2)cn1 [Example 21] | 100% |
| Cc1cc(C(F)(C(F)(F)F)C(F)(F)F)cc(C(F)(F)F)c1-n1cc(-c2ccc(F)c(NC(=O)c3cccs3)c2F)cn1 [Example 26] | 100% |
| COc1cc(C(=O)Nc2c(F)ccc(-c3cnn(-c4c(C)cc(C(F)(C(F)(F)F)C(F)(F)F)cc4C(F)(F)F)c3)c2F)ccc1F [Example 27] | 100% |
| CCOc1cc(C(=O)Nc2cc(-c3cnn(-c4c(C)cc(C(F)(C(F)(F)F)C(F)(F)F)cc4C(F)(F)F)c3)ccc2F)ccc1F [Example 29] | 80% |
| Cc1cc(C(F)(C(F)(F)F)C(F)(F)F)cc(C(F)(F)F)c1-n1cc(-c2ccc(N(C)C)c(NC(=O)C3(C)CC3)c2)cn1 [Example 36] | 100% |
| Cc1cc(C(F)(C(F)(F)F)C(F)(F)F)cc(C(F)(F)F)c1-n1cc(-c2ccc(N(C)C)c(NC(=O)c3ccsc3)c2)cn1 [Example 37] | 100% |
| Cc1cc(C(F)(C(F)(F)F)C(F)(F)F)cc(C(F)(F)F)c1-n1cc(-c2ccc(F)c(N(C)C(=O)c3ccc(F)nc3)c2F)cn1 [Example 41] | 100% |
| COc1cc(C(=O)Nc2cc(-c3cnn(-c4c(C)cc(C(F)(C(F)(F)F)C(F)(F)F)cc4C(F)(F)F)c3)ccc2F)ccc1C [Example 47] | 80% |

Each compound was assayed on Spodoptera frugiperda (assay: Spodoptera frugiperda spray test). Settings: application rate 100 g/ha, caterpillars on maize leaf discs, after 7 days.
Assay type: in vivo
Protocol: as §3, with “Leaf discs” for “Discs”, “maize (Zea mays)” for “Chinese cabbage leaves (Brassica pekinensis)”, “compound” for “ingredient”, “caterpillars” for “larvae”, “armyworm (Spodoptera frugiperda).” for “mustard beetle (Phaedon cochleariae).”

| SMILES | efficacy |
| --- | --- |
| Cc1cc(C(F)(C(F)(F)F)C(F)(F)F)cc(C(F)(F)F)c1-n1cc(-c2cc(NC(=O)c3cnco3)ccc2F)cn1 [Example 2-11] | 100% |
| Cc1cc(C(F)(C(F)(F)F)C(F)(F)F)cc(C)c1-n1cc(-c2ccc(N(C)C)c(NC(=O)c3ccc(F)cc3)c2)cn1 [Example 21] | 100% |
| Cc1cc(C(F)(C(F)(F)F)C(F)(F)F)cc(C(F)(F)F)c1-n1cc(-c2ccc(F)c(NC(=O)c3cccs3)c2F)cn1 [Example 26] | 100% |
| Cc1cc(C(F)(C(F)(F)F)C(F)(F)F)cc(C(F)(F)F)c1-n1cc(-c2ccc(N(C)C)c(NC(=O)C3(C)CC3)c2)cn1 [Example 36] | 100% |
| Cc1cc(C(F)(C(F)(F)F)C(F)(F)F)cc(C(F)(F)F)c1-n1cc(-c2ccc(N(C)C)c(NC(=O)c3ccsc3)c2)cn1 [Example 37] | 100% |
| Cc1cc(C(F)(C(F)(F)F)C(F)(F)F)cc(C(F)(F)F)c1-n1cc(-c2ccc(F)c(N(C)C(=O)c3ccc(F)nc3)c2F)cn1 [Example 41] | 83% |

What follows are compounds tested on Lucilia cuprina (assay: Lucilia cuprina test). Settings: application rate 100 ppm, L1 larvae, kill after 2 days.
Assay type: in vivo
Protocol: as §1, §2
About 20 L1 larvae of the Australian sheep blowfly (Lucilia cuprina) are transferred into a test vessel containing minced horsemeat and the active compound formulation of the desired concentration.
After 2 days, the kill in % is determined. 100% means that all the larvae have been killed; 0% means that no larvae have been killed.

| SMILES | efficacy |
| --- | --- |
| COc1cc(C(=O)Nc2ccc(F)c(-c3cnn(-c4c(C)cc(C(F)(C(F)(F)F)C(F)(F)F)cc4C(F)(F)F)c3)c2)ccc1C#N [Example 2-8] | 90% |
| Cc1cc(C(F)(C(F)(F)F)C(F)(F)F)cc(C(F)(F)F)c1-n1cc(-c2cc(NC(=O)c3ccsc3)ccc2F)cn1 [Example 2-9] | 100% |
| Cc1cc(C(F)(C(F)(F)F)C(F)(F)F)cc(C(F)(F)F)c1-n1cc(-c2cc(NC(=O)c3cnco3)ccc2F)cn1 [Example 2-11] | 100% |
| Cc1cc(C(F)(C(F)(F)F)C(F)(F)F)cc(C(F)(F)F)c1-n1cc(-c2ccc(F)c(NC(=O)c3cccs3)c2F)cn1 [Example 26] | 100% |
| COc1cc(C(=O)Nc2c(F)ccc(-c3cnn(-c4c(C)cc(C(F)(C(F)(F)F)C(F)(F)F)cc4C(F)(F)F)c3)c2F)ccc1F [Example 27] | 90% |
| Cc1cc(C(F)(C(F)(F)F)C(F)(F)F)cc(C(F)(F)F)c1-n1cc(-c2ccc(N(C)C)c(NC(=O)C3(C)CC3)c2)cn1 [Example 36] | 100% |
| Cc1cc(C(F)(C(F)(F)F)C(F)(F)F)cc(C(F)(F)F)c1-n1cc(-c2ccc(N(C)C)c(NC(=O)c3ccsc3)c2)cn1 [Example 37] | 100% |
| Cc1cc(C(F)(C(F)(F)F)C(F)(F)F)cc(C(F)(F)F)c1-n1cc(-c2ccc(F)c(N(C)C(=O)c3ccc(F)nc3)c2F)cn1 [Example 41] | 100% |

From patent publication US10202351B2, “Pyrazolyl derivatives as pest control agents” (BAYER ANIMAL HEALTH GMBH, priority 2015, dated 2019)
